These results are taken from publication PMC9495826, “Membranolytic Mechanism of Amphiphilic Antimicrobial β-Stranded [KL]n Peptides” (Biomedicines, 2022).

Read-outs that look alike come from different tables or passages of the source. No end group written: not given here.

In data set [1] the test system is Bacillus subtilis (DSM 347). It is filed as cell-based. Here is the method: (§1) The antimicrobial activity of the KL peptides was determined with a MIC assay. Peptide activity was tested against Gram-negative Escherichia coli (DSM 1116) and Enterobacter helveticus (DSM 18390) and against Gram-positive Bacillus subtilis (DSM 347) and Staphylococcus xylosus (DSM 20287) as previously reported. Our standard MIC assay was modified to avoid unnecessary exposure of peptides to the phosphate-containing growth medium, which was previously found to affect the results due to phosphate-induced aggregation of peptides. Details can be found in the Supplementary Materials.
(§2) The activity of KL and LK peptides against bacteria was examined using a MIC assay. […] We have previously shown that KL peptides, especially the longer ones, aggregate vigorously in the presence of phosphate ions. […] Therefore, here we used a modified MIC assay that was developed in our previous study, as described in the Methods section. In this approach, a two-fold dilution series was first prepared with peptides dissolved in water, and only thereafter were the bacteria in the medium added so that the peptides were simultaneously exposed to bacteria and phosphate-containing medium.
(§3) 1.3 MIC (minimum inhibitory concentration) assay
(§4) Antimicrobial activity was measured by a minimal inhibitory concentration (MIC) assay, carried out with Gram-positive Bacillus subtilis (DSM 347) and Staphylococcus xylosus (DSM 20287) and with Gram-negative Escherichia coli (DSM 1116) and Enterobacter helvet-icus (DSM 18390). Bacteria were grown in Müller-Hinton medium at 37°C overnight. Bac-terial solutions with OD550 = 0.2 was further diluted 1:100 for Gram-positive and 1:1000 for Gram-negative bacteria to get a concentration of […] colony forming units (CFU)/mL. Mi-crotiter plates (96 wells of 100 μL) were filled peptide solution to obtain serial 2-fold dilu-tion series of peptides. 50 µL of pure water was first added to each well. To the first well 50 µL peptide solution was added, after mixing 50 µL of this was transferred to the second well and so on. After all plates were prepared, 50 µL bacterial solution in double-concen-tration MHM was added to the wells (except for the final row of each plate) to give a final concentration of 5 × 10^5 CFU/mL in the wells. Thus, peptides got in contact with phosphate and bacteria simultaneously. […]
(§5) gregate stronlgy in contact with the phosphate containing growth medium. The two final rows of each plate remained without peptide, so that the penultimate data point served as the positive co ntrol (no peptide), and the final one as the negative control (not inoculated). The plates were incubated at 37°C for 20 h, and cell viability was probed by addition of 20 µL 0.2 mg/mL resazurin and incubation at 37°C for 2 h. The MIC value was determined visually as the lowest peptide concentration inhibiting bacterial growth. […]
(§6) Unencapsulated dye was removed by gel filtration using spin columns filled with Sephacryl 100-HR (Sigma-Aldrich, Taufkirchen, Germany), and equilibrated with an elu-tion buffer (150 mM NaCl, 10 mM HEPES, pH 7.5), which balances the internal vesicle

In data set [2] the test system is Enterobacter helveticus (DSM 18390). The class given is cell-based. Here is the method:
as §1, §2, §3, §4, §5, §6

Data set [3] relates to Escherichia coli (DSM 1116). The class given is cell-based. Here is the method:
as §1, §2, §3, §4, §5, §6

Data set [4] concerns Staphylococcus xylosus (DSM 20287). It is filed as cell-based. The procedure: as §1, §2, §3, §4, §5, §6
Data set [5] relates to erythrocytes. Briefly: Hemolysis assay. The class given is cell-based. Particulars: for Hemolysis: erythrocytes of healthy donors, A540, relative to Triton-X 100%, average of three absorbance measurements.
In data set [6] the test system is four bacterial strains. Briefly: MIC assay, overall statement for the four strains. It is filed as cell-based, E. coli, E. helveticus, B. subtilis, S. xylosus. Particulars: modified MIC assay. The procedure: as §1
The activity of KL and LK peptides against bacteria was examined using a MIC assay. […] We have previously shown that KL peptides, especially the longer ones, aggregate vigorously in the presence of phosphate ions. […] Therefore, here we used a modified MIC assay that was developed in our previous study, as described in the Methods section. […]
Antimicrobial activity was measured by a minimal inhibitory concentration (MIC) assay, carried out with Gram-positive Bacillus subtilis (DSM 347) and Staphylococcus xylosus (DSM 20287) and with Gram-negative Escherichia coli (DSM 1116) and Enterobacter helvet-icus (DSM 18390). […]
gregate stronlgy in contact with the phosphate containing growth medium. […] The MIC value was determined visually as the lowest peptide concentration inhibiting bacterial growth. […]

In data set [7] the test system is four bacterial strains. Particulars: earlier study; ref [15]; cited from earlier work. An excerpt:
(§7) Many natural and man-made AMPs are cationic and fold into simple amphiphilic α-helices. Much fewer examples exist of another fundamental type of secondary structure, namely amphiphilic β-strands. A classic model sequence, [KIGAKI]3-NH2, had been designed from alternating polar and hydrophobic side chains. Recently, we presented an even simpler group of so-called KL peptides, consisting of the alternating (lysine-leucine) dipeptide repeat: [KL]n-NH2. Recently, four KLx peptides of different lengths (x = number of residues, x = 2n) with 6–18 amino acids were compared in terms of ...

In data set [8] the test system is erythrocytes. Particulars: cited from earlier work.
Description: as §7

The mark [9] stands for this setting: Gram-positive, modified MIC: 2-fold dilution series of peptide in water, then bacteria in double-concentration Müller-Hinton medium, 5 × 10^5 CFU/mL, 37°C 20 h, resazurin, visual.
Where [10] appears, read: Gram-negative, modified MIC: 2-fold dilution series of peptide in water, then bacteria in double-concentration Müller-Hinton medium, 5 × 10^5 CFU/mL, 37°C 20 h, resazurin, visual.

Take KLKLKLKLKL-NH2 [KL10]: in data set [1] (DSM 347, 20 h), the “MIC B. subtilis” value is on record as 2 µg/mL. In addition, in data set [2] (DSM 18390, 20 h), the “MIC E. helveticus” value turned out to be 2 µg/mL. Moreover, the “MIC E. coli” value in data set [3] (DSM 1116, 20 h) was 4 µg/mL. The “MIC S. xylosus” value in data set [4] (DSM 20287, 20 h) stood at 2 µg/mL. For the same substance, the “Hemolytic activity (in words)” value with erythrocytes [5] was “considerably more hemolytic than LK10”. For the same substance, in the data set with erythrocytes [5] (20 h), the “Hemolysis HC50 (concentration of peptide giving 50% hemolysis)” value is 47 µg/mL. The “Antimicrobial activity (in words)” value in the data set on four bacterial strains [6] is reported as “highest activity”. Further, in the data set on four bacterial strains [7], the “Antimicrobial effect (in words)” value is “better antimicrobial effect than KL6, KL14 or KL18”.
For KLKLKLKLKLKLKL-NH2 [KL14], the “MIC B. subtilis” value in data set [1] (DSM 347, 20 h) is reported as 4 µg/mL. The “MIC E. helveticus” value in data set [2] (DSM 18390, 20 h) is recorded as 4 µg/mL. Besides, the “MIC E. coli” value in data set [3] (DSM 1116, 20 h) is recorded as 8 µg/mL. Moreover, in data set [4] (DSM 20287, 20 h), the “MIC S. xylosus” value was 4 µg/mL. Moreover, the “Hemolysis HC50 (concentration of peptide giving 50% hemolysis)” value in the data set with erythrocytes [5] (20 h) worked out at 1 µg/mL. Further, the “Hemolytic activity (in words)” value in the data set with erythrocytes [8] is given as “highly hemolytic”.
In the case of KLKLKLKLKLKLKLKLKL-NH2 [KL18], in data set [1] (DSM 347, 20 h), the “MIC B. subtilis” value amounted to 32 µg/mL. Further, the “MIC E. helveticus” value in data set [2] (DSM 18390, 20 h) is recorded as 16 µg/mL. For the same substance, the “MIC E. coli” value in data set [3] (DSM 1116, 20 h) stood at 32 µg/mL. Besides, the “MIC S. xylosus” value in data set [4] (DSM 20287, 20 h) is given as 8 µg/mL. Further, in the data set on erythrocytes [5] (20 h), the “Hemolysis HC50 (concentration of peptide giving 50% hemolysis)” value amounted to 1 µg/mL. Further, the “Hemolytic activity (in words)” value in the data set on erythrocytes [8] is reported as “highly hemolytic”.
As to KLKLKLKLKLKLKLKLKLKLKLKLKL-NH2 [KL26], the “MIC B. subtilis” value in data set [1] (setting [9]) amounted to 32 µg/mL. Further, the “MIC E. helveticus” value in data set [2] (setting [10]) is 16 µg/mL. Besides, in data set [3] (setting [10]), the “MIC E. coli” value was determined as 64 µg/mL. In addition, the “MIC S. xylosus” value in data set [4] (setting [9]) was 16 µg/mL. In addition, the “Hemolysis HC50 (concentration of peptide giving 50% hemolysis)” value in the data set with erythrocytes [5] (interpolated from concentration-dependent curves, washed erythrocytes of healthy donors, 37°C 30 min, absorbance 540 nm, 100% = 1% Triton X-100) is given as less than 1 µg/mL. In addition, the Hemolysis in the data set with erythrocytes [5] (peptide 1 µg/mL, 37°C 30 min) stood at 52%; in the data set on erythrocytes [5] (peptide 2 µg/mL, 37°C 30 min), 71%; with erythrocytes [5] (peptide 4 µg/mL, 37°C 30 min) it was 72%; in the data set with erythrocytes [5] (peptide 8 µg/mL, 37°C 30 min) it was 72%; with erythrocytes [5] (peptide 16 µg/mL, 37°C 30 min), 56%; in the data set with erythrocytes [5] (peptide 32 µg/mL, 37°C 30 min) it was 50%. Besides, the Hemolysis in the data set on erythrocytes [5] (peptide 64 µg/mL, 37°C 30 min) worked out at 47%; with erythrocytes [5] (peptide 128 µg/mL, 37°C 30 min), 42%; with erythrocytes [5] (peptide 256 µg/mL, 37°C 30 min) it was 39%.
For the substance LKLKLKLKL-NH2 [LK9], in data set [1] (DSM 347, 20 h), the “MIC B. subtilis” value amounted to 4 µg/mL. Also, the “MIC E. helveticus” value in data set [2] (DSM 18390, 20 h) is 4 µg/mL. For the same substance, the “MIC E. coli” value in data set [3] (DSM 1116, 20 h) came to 16 µg/mL. Further, in data set [4] (DSM 20287, 20 h), the “MIC S. xylosus” value was 2 µg/mL. For the same substance, the “Hemolysis HC50 (concentration of peptide giving 50% hemolysis)” value with erythrocytes [5] (20 h) amounted to 145 µg/mL.
On to LKLKLKLKLK-NH2 [LK10], for which the “MIC B. subtilis” value in data set [1] (DSM 347, 20 h) was found to be 4 µg/mL. For the same substance, the “MIC E. helveticus” value in data set [2] (DSM 18390, 20 h) came out at 2 µg/mL. Also, in data set [3] (DSM 1116, 20 h), the “MIC E. coli” value is listed as 8 µg/mL. In data set [4] (DSM 20287, 20 h), the “MIC S. xylosus” value was 1 µg/mL. In addition, in the data set on erythrocytes [5] (20 h), the “Hemolysis HC50 (concentration of peptide giving 50% hemolysis)” value stood at 256 µg/mL.
The like results for LKLKLKLKLKL-NH2 [LK11] were, in that order, 2 µg/mL, 1 µg/mL, 2 µg/mL, 1 µg/mL and 3 µg/mL.
With LKLKLKLKLKLKL-NH2 [LK13], in data set [1] (DSM 347, 20 h), the “MIC B. subtilis” value was found to be 8 µg/mL. In addition, the “MIC E. helveticus” value in data set [2] (DSM 18390, 20 h) was determined as 4 µg/mL. Also, the “MIC E. coli” value in data set [3] (DSM 1116, 20 h) was found to be 8 µg/mL. In data set [4] (DSM 20287, 20 h), the “MIC S. xylosus” value was determined as 4 µg/mL. Moreover, the “Hemolysis HC50 (concentration of peptide giving 50% hemolysis)” value in the data set on erythrocytes [5] (20 h) is listed as 2 µg/mL.
For the substance LKLKLKLKLKLKLKL-NH2 [LK15], the “MIC B. subtilis” value in data set [1] (DSM 347, 20 h) came out at 16 µg/mL. Further, the “MIC E. helveticus” value in data set [2] (DSM 18390, 20 h) was determined as 16 µg/mL. In addition, the “MIC E. coli” value in data set [3] (DSM 1116, 20 h) was 64 µg/mL. In data set [4] (DSM 20287, 20 h), the “MIC S. xylosus” value amounted to 16 µg/mL. Also, the “Hemolysis HC50 (concentration of peptide giving 50% hemolysis)” value in the data set with erythrocytes [5] (20 h) was less than 1 µg/mL.
